In US20080221074A1, “Drug Screen and Treatment Method” (priority 2006, published 2008):

What was measured:
[1] = test system: CD4^+CD25^+ T regulatory cells; test: generation of CD4+CD25+ T regulatory cells after adoptive transfer; format: in vivo, B6 mice; details: 1 mg/animal/day s.c. 14 days
Protocol: Inhibition of the generation of CD4^+CD25^+ T regulatory cells or their activity in vivo. Purified CD4^+CD25^− T cells (5×10^6 cells) from congenic B6.SJL mice (CD45.1) per group were adoptively transferred into each of five B6 mice (CD45.2). The purified CD4^+CD25^− T cells were obtained by fluorescence activated cell sorting (FACS) of the donor cells at least twice. Vehicle (0.1% carboxymethylcellulose, 0.9% saline, 2% tween 80, 0.05% phenol) or 16α-bromoepiandrosterone in vehicle (1 mg/animal/day in 100 μL vehicle) was injected subcutaneously before transfer of the cells from the CD45.1 donor animals and the injections were continued daily for 14 days. Thymus, lymph nodes and spleens were collected from the animals at day 15. Samples of thymus, lymph node and spleen were obtained from individuals, and the cells were labeled with fluorescent antibody that bound to CD4, CD25, CD103 or Foxp3. The cells were then analyzed by flow cytometry to enumerate the numbers of the various cell types. The remainder of cells from lymph nodes and spleen of each treatment group were pooled, pre-enriched for CD4^+CD25^+ cells and then analyzed for CD4^+CD25^+ that arose from the host (endogenous CD45.2 cells) and from donor cells (CD45.1 cells that converted from the CD4^+CD25^− donor phenotype to the CD4^+CD25^+ phenotype after residing in vivo for 15 days). The cells were analyzed by cell sorter. To test for regulatory function, varying numbers of purified converted CD45.1 or endogenous CD45.2 CD4^+CD25^+ cells were co-cultured with 2000 CD4^+CD25^− responder cells, 1×10^5 irradiated spleen cells as antigen presenting cells, and […] of anti-CD3 antibody. Fresh CD4^+CD25^+ cells were used as controls. Proliferation was determined by measurement of ^3H-thymidine uptake 4 days after initiation of culture.

NF-κB = test: inhibition of NF-κB activation in NF-κB-bla THP-1 cells after LPS stimulation; format: cell-based, human
How it was run: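 THP-1 monocytes stably carrying an NF-κB response element–driven β-lactamase reporter, plated about 24 h before activation with LPS at 0.2 ng/mL. Reporter activity measured by FRET ratiometric detection; values are averages of usually 2-4 runs per compound.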

[2] = test system: lethal amount of bacterial lipopolysaccharide (LPS); test: lethal shock protocol; format: in vivo, mice
Protocol: Treatment of lethal inflammation/shock. Two compounds, 16α-bromoepiandrosterone (3β-hydroxy-16α-bromoandrostane-17-one) and 3β,16α-dihydroxy-17-oxoandrostane, were used in a lethal shock protocol. In one protocol, 3 mg of 16α-bromoepiandrosterone was administered to one group of animals by oral gavage, while another group received 3 mg of 16α-bromoepiandrosterone by subcutaneous injection. A group of control animals received a placebo control. In this protocol, the 16α-bromoepiandrosterone was administered to mice at 24 hours before and at 1 hour after administration of a lethal amount of bacterial lipopolysaccharide (LPS). By the end of the observation period, 72 hours after LPS administration, none of the vehicle treated placebo control animals had survived, while 65% of animals that received 16α-bromoepiandrosterone by oral administration survived. 50% of the animals that received 16α-bromoepiandrosterone by subcutaneous injection survived. Animals that survived for 72 hours all recovered from the LPS exposure.
In a second assay, 16α-bromoepiandrosterone or 3β,16α-dihydroxy-17-oxoandrostane was administered to mice by oral gavage at 24 hours before and 1 hour after administration of a lethal amount of LPS. A vehicle treated group of animals was used as the placebo control.

human whole blood = test: γ-interferon production in human whole blood exposed to LPS; format: cell-based; details: 24 hours with LPS; 16α-bromoepiandrosterone at 100 ng/mL
Protocol: Anti-inflammation activity in human cells in vitro. […] The amount of γ-interferon was measured in the growth medium when the cells had been incubated in the presence of LPS for 24 hours.

Pseudomonas aeruginosa = test: clearance of Pseudomonas aeruginosa infection from lung tissue; format: in vivo, CFTR mice; details: 40 mg/kg; day 10; vs vehicle
Protocol: Clearance of bacteria from lung tissue. The capacity of 16α-bromoepiandrosterone to clear a Pseudomonas aeruginosa infection from lung tissue was shown using a previously published protocol, A. van Heeckeren et al., J. Clin. Invest., 100(11):2810-2815 […]; A. van Heeckeren et al., Am. J. Respir. Crit. Care Med., 161:271-279 2000. The protocol was conducted in CFTR mice, which are used as an animal model for human cystic fibrosis, S. D. Freedman et al., Proc. Natl. Acad. Sci. USA, 96(24):13995-14000 1999; W. Zeng et al., Am. J. Physiol. Cell. Physiol. […] Establishment of chronic P. aeruginosa infection using agarose beads containing bacteria (50 μL containing about 6.1×10^4 CFU/animal) was published earlier, J. R. Starke et al., Pediatr. Res., 22:698-702 1987. Two groups of mice (n=9 for each group) were treated with 40 mg/kg of 16α-bromoepiandrosterone or vehicle (control) and the bacterial burden in the lungs of the animals was determined at 10 days after introduction of the agarose beads into the lung.

## C[C@]12CC[C@H](O)C[C@@H]1CC[C@@H]1[C@@H]2CC[C@]2(C)C(=O)[C@H](Br)C[C@@H]12 [16α-bromoepiandrosterone]
[1]
  donor CD45.1 CD4^+CD25^+CD103^+ cells of total donor CD4^+CD25^+ cells in spleen: 9.63%
  proportion of endogenous CD45.2 CD4^+CD25^+CD103^+ Treg cells in spleen: 13.40%
[1]; day 15
  donor CD45.1 CD4^+CD25^+ cell number in spleen: 0.62×10^5 cells
  endogenous CD45.2 CD4^+CD25^+ cell number in spleen: 5.49×10^6 cells
  endogenous CD45.2 CD4^+CD25^+ cells in the thymus: 1.59×10^5
NF-κB
  maximum inhibition of NF-κB: 100%
NF-κB; LPS stimulation, 50% of the compound's maximum inhibition, averages, read-out: IC50
  IC50: 8.8 µM
[2]; 3 mg oral gavage 24 h before and 1 h after LPS
  survival 72 hours after LPS: 65%
[2]; 3 mg subcutaneous injection 24 h before and 1 h after LPS
  survival 72 hours after LPS: 50%
[2]; second assay, oral gavage 24 h before and 1 h after LPS
  survival 72 hours after LPS: 80%
Human whole blood
  production of γ-interferon: Reduced production
Pseudomonas aeruginosa
  bacterial burden in the lungs: reduced
